This is an account of results in patent US20120065066A1, “NOVEL HERBICIDES” (SYNGENTA CROP PROTECTION LLC, priority 2009, published 2012).

Holding throughout (type): in vivo
Assay [1] relates to Setaria faberi (SETFA). Kind of assay: Test Example 1, post-emergence herbicidal test. As to conditions: 360 h, evaluated 15 days later, 100=total damage to plant, 0=no damage to plant, read-out: SEFTA damage to plant. The protocol: (§1) Monocotyledonous and dicotyledonous test plants were sown in standard soil in pots. After cultivation for one day (pre-emergence) or after 10 days cultivation (post-emergence) under controlled conditions in a glasshouse, the plants were sprayed with an aqueous spray solution derived from the formulation of the technical active ingredient in 0.6 ml acetone and 45 ml formulation solution containing 10.6% Emulsogen EL (Registry number 61791-12-6), 42.2% N-methylpyrrolidone, 42.2% dipropylene glycol monomethyl ether (Registry number 34590-94-8) and 0.2% X-77 (Registry number 11097-66-8). The test plants were then grown in a greenhouse under optimum conditions until, 15 days later for post-emergence and 20 days for pre-emergence, the test was evaluated (100=total damage to plant; 0=no damage to plant). Test Plants: Lolium perenne (LOLPE), Setaria faberi (SETFA), Digitaria sanguinalis (DIGSA), Alopecurus myosuroides (ALOMY), Echinochloa crus-galli (ECHCG) and Avena fatua (AVEFA), Post-Emergence Data: […]

Assay [2] has as its system Avena fatua (AVEFA). Kind of assay: Test Example 1, post-emergence herbicidal test. The following applies: 360 h, evaluated 15 days later, 100=total damage to plant, 0=no damage to plant. The protocol:
as §1

Assay [3] deals with Digitaria sanguinalis (DIGSA). Kind of assay: Test Example 1, post-emergence herbicidal test. The following applies: 360 h, evaluated 15 days later, 100=total damage to plant, 0=no damage to plant. As for the experimental part:
as §1

Assay [4] concerns Alopecurus myosuroides (ALOMY). Kind of assay: Test Example 1, post-emergence herbicidal test. As to conditions: 360 h, evaluated 15 days later, 100=total damage to plant, 0=no damage to plant. As for the experimental part:
as §1

The test system of assay [5] is Lolium perenne (LOLPE). Kind of assay: Test Example 1, post-emergence herbicidal test. As to conditions: 360 h, evaluated 15 days later, 100=total damage to plant, 0=no damage to plant. The protocol: as §1
Assay [6] has as its system Echinochloa crus-galli (ECHCG). Kind of assay: Test Example 1, post-emergence herbicidal test. As to conditions: 360 h, evaluated 15 days later, 100=total damage to plant, 0=no damage to plant. As for the experimental part:
as §1

Assay [7] concerns Setaria faberi (SETFA). Kind of assay: Test Example 1, pre-emergence herbicidal test. As to conditions: 480 h, evaluated 20 days later, 100=total damage to plant, 0=no damage to plant, read-out: SEFTA damage to plant. As for the experimental part:
as §1, with “Pre-Emergence” for “Post-Emergence”

For assay [8], the system named is Avena fatua (AVEFA). Kind of assay: Test Example 1, pre-emergence herbicidal test. As to conditions: 480 h, evaluated 20 days later, 100=total damage to plant, 0=no damage to plant. The protocol:
as §1, with “Pre-Emergence” for “Post-Emergence”

Assay [9] deals with Digitaria sanguinalis (DIGSA). Kind of assay: Test Example 1, pre-emergence herbicidal test. The following applies: 480 h, evaluated 20 days later, 100=total damage to plant, 0=no damage to plant. The protocol:
as §1, with “Pre-Emergence” for “Post-Emergence”

The subject of assay [10] is Alopecurus myosuroides (ALOMY). Kind of assay: Test Example 1, pre-emergence herbicidal test. As to conditions: 480 h, evaluated 20 days later, 100=total damage to plant, 0=no damage to plant. The protocol: as §1, with “Pre-Emergence” for “Post-Emergence”
Assay [11] has as its system Lolium perenne (LOLPE). Kind of assay: Test Example 1, pre-emergence herbicidal test. As to conditions: 480 h, evaluated 20 days later, 100=total damage to plant, 0=no damage to plant. The protocol:
as §1, with “Pre-Emergence” for “Post-Emergence”

Assay [12] relates to Echinochloa crus-galli (ECHCG). Kind of assay: Test Example 1, pre-emergence herbicidal test. As to conditions: 480 h, evaluated 20 days later, 100=total damage to plant, 0=no damage to plant. The protocol: as §1, with “Pre-Emergence” for “Post-Emergence”
In assay [13] the test system is Avena fatua (AVEFA). Kind of assay: Test Example B, post-emergence herbicidal test. The following applies: 312 h, evaluated after 13 days, 100=total damage to plant, 0=no damage to plant. The protocol:
(§2) Seeds of a variety of test species were sown in standard soil in pots. After cultivation for one day (pre-emergence) or after 8 days cultivation (post-emergence) under controlled conditions in a glasshouse (at 24/16° C., day/night; 14 hours light; 65% humidity), the plants were sprayed with an aqueous spray solution derived from the formulation of the technical active ingredient in acetone/water (50:50) solution containing 0.5% Tween 20 (polyoxyethelyene sorbitan monolaurate, CAS RN 9005-64-5). The test plants were then grown in a glasshouse under controlled conditions in a glasshouse (at 24/16° C., day/night; 14 hours light; 65% humidity) and watered twice daily. After 13 days for pre and post-emergence, the test was evaluated (100=total damage to plant; 0=no damage to plant). Test Plants: Setaria faberi (SETFA), Alopecurus myosuroides (ALOMY), Echinochloa crus-galli (ECHCG), and Avena fatua (AVEFA).

Assay [14] deals with Alopecurus myosuroides (ALOMY). Kind of assay: Test Example B, post-emergence herbicidal test. As to conditions: 312 h, evaluated after 13 days, 100=total damage to plant, 0=no damage to plant. The protocol:
as §2

The subject of assay [15] is Echinochloa crus-galli (ECHCG). Kind of assay: Test Example B, post-emergence herbicidal test. The following applies: 312 h, evaluated after 13 days, 100=total damage to plant, 0=no damage to plant. As for the experimental part: as §2
Assay [16] concerns Avena fatua (AVEFA). Kind of assay: Test Example B, pre-emergence herbicidal test. The following applies: 312 h, evaluated after 13 days, 100=total damage to plant, 0=no damage to plant. The protocol:
as §2

The subject of assay [17] is Alopecurus myosuroides (ALOMY). Kind of assay: Test Example B, pre-emergence herbicidal test. As to conditions: 312 h, evaluated after 13 days, 100=total damage to plant, 0=no damage to plant. As for the experimental part:
as §2

The subject of assay [18] is Echinochloa crus-galli (ECHCG). Kind of assay: Test Example B, pre-emergence herbicidal test. The following applies: 312 h, evaluated after 13 days, 100=total damage to plant, 0=no damage to plant. The protocol:
as §2

As to `CCc1cc(C)cc(CC)c1C1=C(O)[C@H]2[C@H]3CC[C@H](CC3)[C@H]2C1=O` (racemic) [Compound T48, rac-(7R,8S)-2-(2,6-diethyl-4-methylphenyl)hexahydro-4,7-ethanoindene-1,3-dione], the pest or weed control at 125 g/ha in [1] is 80%; in assay [2] it was 70%; in assay [3] it was 100%; in [4] it was 80%; in assay [5], 100%; in assay [6] it was 90%. The pest or weed control at 250 g/ha in assay [7] was 100%; in assay [8], 70%; in assay [9] it was 100%; in [10], 100%; in [11], 100%; in assay [12], 100%.

For `CCc1cc(C)cc(CC)c1C1=C(O)[C@H]2[C@H]3CC[C@H](C3)[C@H]2C1=O` [Compound T49], the pest or weed control at 125 g/ha turned out to be 100% in assay [1]; 80% in assay [2]; 100% in [3]; 100% in [4]; 100% in assay [5]; 100% in [6]. Further, the pest or weed control at 250 g/ha in assay [7] was 100%; in assay [8], 70%; in assay [9] it was 100%; in assay [10], 100%; in assay [11], 100%; in [12] it was 100%.

As for `CCc1ccc(-c2ccc(Cl)cc2)cc1C1=C(O)[C@H]2[C@H]3C=C[C@](OC)(CC3)[C@H]2C1=O` (racemic) [Compound T8, rac-(3aS,4R,7R,7aS)-2-(4′-chloro-4-ethylbiphenyl-3-yl)-4-methoxy-3a,4,7,7a-tetrahydro-4,7-ethanoindene-1,3-dione], the pest or weed control at 125 g/ha in [1] came to 80%; in [2], 10%; in [3] it was 100%; in assay [4] it was 70%; in [5] it was 0%; in assay [6] it was 100%. The pest or weed control at 250 g/ha in assay [7] was 90%; in assay [8], 10%; in assay [9] it was 100%; in assay [10] it was 60%; in assay [11], 70%; in assay [12], 100%.

Consider `Cc1cc(C)c(C2=C(O)[C@@H]3[C@H](C2=O)[C@@H]2C=C[C@H]3CC2)c(C)c1` [Compound T53], for which the pest or weed control at 125 g/ha in assay [1] came out at 20%; in [2], 0%; in assay [3], 50%; in [4] it was 20%; in [5] it was 30%; in [6], 60%. Also, the pest or weed control at 250 g/ha in assay [7] is 100%; in assay [8], 40%; in assay [9] it was 80%; in [10], 70%; in assay [11], 100%; in assay [12], 70%.

Consider `CCc1ccc(-c2ccc(Cl)cc2F)cc1C1=C(O)[C@H]2[C@H]3CC[C@H](CC3)[C@H]2C1=O` (racemic) [Compound T10, rac-(3aR,7aS)-2-(4′-chloro-4-ethyl-2′-fluorobiphenyl-3-yl)hexahydro-4,7-ethanoindene-1,3-dione], for which the pest or weed control at 250 g/ha in assay [13] is 0%; in assay [14] it was 0%; in [15], 90%; in assay [16], 0%; in assay [17], 0%; in assay [18], 90%.

As to `CCc1ccc(-c2ccc(Cl)cc2)cc1C1=C(O)[C@@H]2[C@H](C1=O)[C@@H]1C=C[C@H]2CC1` (racemic) [Compound T6, rac-(3aR,4S,7R,7aS)-2-(4′-chloro-4-ethylbiphenyl-3-yl)-3a,4,7,7a-tetrahydro-4,7-ethanoindene-1,3-dione], the pest or weed control at 250 g/ha in [13] stood at 60%; in [14], 70%; in assay [15], 100%; in assay [16], 40%; in assay [17], 60%; in assay [18], 100%.

For `CCc1ccc(-c2ccc(Cl)c(F)c2)cc1C1=C(O)[C@H]2[C@H]3CC[C@H](C3)[C@H]2C1=O` [Compound T35], the pest or weed control at 250 g/ha in assay [13] came to 90%; in [14], 90%; in [15], 90%; in assay [16], 70%; in [17] it was 80%; in assay [18] it was 90%.

On to `CCc1ccc(-c2ccc(Cl)c(C(F)(F)F)c2)cc1C1=C(O)[C@H]2[C@H]3CC[C@H](CC3)[C@H]2C1=O` [Compound T16], for which the pest or weed control at 250 g/ha in assay [13] was 0%; in assay [14], 0%; in [15], 30%; in assay [16], 20%; in assay [17], 60%; in [18], 100%.

On to `CCc1ccc(-c2ccc(Cl)cc2Cl)cc1C1=C(O)[C@H]2[C@H]3CC[C@H](C3)[C@H]2C1=O` [Compound T29], for which the pest or weed control at 250 g/ha in assay [13] was 0%; in [14], 30%; in assay [15], 100%; in assay [16], 90%; in assay [17] it was 30%; in assay [18] it was 100%.

With `CCc1ccc(-c2ccc(Cl)cc2)cc1C1=C(O)[C@H]2[C@H]3CC[C@H](CC3)[C@H]2C1=O` (racemic) [Compound T3, rac-(3aR,7aS)-2-(4′-chloro-4-ethylbiphenyl-3-yl)hexahydro-4,7-ethanoindene-1,3-dione], the pest or weed control at 250 g/ha in [13] amounted to 90%; in [14], 100%; in assay [15], 100%; in assay [16], 70%; in [17], 70%; in [18] it was 100%.

In the case of `CCc1ccc(-c2c(F)cc(Cl)cc2Cl)cc1C1=C(O)[C@H]2[C@H]3CC[C@H](CC3)[C@H]2C1=O` [Compound T42], the pest or weed control at 250 g/ha was found to be 40% in [13]; 0% in assay [14]; 80% in assay [15]; 0% in [16]; 0% in assay [17]; 0% in assay [18].
